In US11312712B2, “Azabenzimidazoles and their use as AMPA receptor modulators” (Janssen Pharmaceutica NV, priority 2015, dated 2022):

These compounds were tested against GluA1o-γ8 (GRIA1o-CACNG8 fusion construct) (Homo sapiens (Human), UniProt P42261+Q8WXS5) (assay: Calcium flux assay (FLIPR), inhibition of TARP γ8 dependent AMPA receptor activity). Details: GluA1o-γ8 (GRIA1o-CACNG8 fusion) in HEK293 cells, calcium flux after 15 μM glutamate.
Sequence of GluA1o-γ8 (GRIA1o-CACNG8 fusion construct) (P42261 other isoform, or with tags, fused parts or gaps): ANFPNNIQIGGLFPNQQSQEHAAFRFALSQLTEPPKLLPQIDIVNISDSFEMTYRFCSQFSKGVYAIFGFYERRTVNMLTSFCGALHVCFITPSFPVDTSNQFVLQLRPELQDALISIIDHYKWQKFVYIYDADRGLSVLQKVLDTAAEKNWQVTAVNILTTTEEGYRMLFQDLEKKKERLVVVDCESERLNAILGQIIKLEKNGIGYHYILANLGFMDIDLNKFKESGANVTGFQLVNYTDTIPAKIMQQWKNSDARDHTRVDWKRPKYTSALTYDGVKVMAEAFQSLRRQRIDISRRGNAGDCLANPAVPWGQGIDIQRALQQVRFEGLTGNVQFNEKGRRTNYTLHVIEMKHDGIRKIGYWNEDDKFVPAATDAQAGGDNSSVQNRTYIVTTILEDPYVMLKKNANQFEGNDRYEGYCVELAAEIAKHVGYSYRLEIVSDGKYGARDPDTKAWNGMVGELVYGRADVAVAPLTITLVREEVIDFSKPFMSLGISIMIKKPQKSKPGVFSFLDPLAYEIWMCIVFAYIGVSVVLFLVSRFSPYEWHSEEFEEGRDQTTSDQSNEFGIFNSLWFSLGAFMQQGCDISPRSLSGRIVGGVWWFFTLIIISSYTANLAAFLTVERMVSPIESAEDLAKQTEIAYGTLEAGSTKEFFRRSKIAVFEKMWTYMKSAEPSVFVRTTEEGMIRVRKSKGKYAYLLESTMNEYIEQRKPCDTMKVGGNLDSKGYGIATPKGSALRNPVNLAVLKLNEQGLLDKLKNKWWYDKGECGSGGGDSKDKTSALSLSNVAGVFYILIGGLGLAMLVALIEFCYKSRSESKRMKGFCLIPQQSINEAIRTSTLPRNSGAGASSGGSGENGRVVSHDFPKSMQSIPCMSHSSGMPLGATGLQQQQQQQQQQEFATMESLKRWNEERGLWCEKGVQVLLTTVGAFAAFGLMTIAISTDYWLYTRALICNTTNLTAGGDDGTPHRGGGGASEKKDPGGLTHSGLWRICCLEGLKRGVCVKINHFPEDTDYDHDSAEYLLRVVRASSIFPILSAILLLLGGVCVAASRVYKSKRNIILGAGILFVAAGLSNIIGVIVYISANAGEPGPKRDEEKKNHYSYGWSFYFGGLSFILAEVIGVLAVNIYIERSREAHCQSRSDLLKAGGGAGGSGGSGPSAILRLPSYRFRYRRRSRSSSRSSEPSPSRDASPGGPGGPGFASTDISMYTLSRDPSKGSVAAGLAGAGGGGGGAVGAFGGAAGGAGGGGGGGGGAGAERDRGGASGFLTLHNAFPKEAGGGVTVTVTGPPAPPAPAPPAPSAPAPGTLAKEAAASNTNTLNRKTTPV
Format: cell-based
Excerpt: This assay was used to test compounds for their ability to inhibit TARP γ8 dependent AMPA receptor activity. The AMPA receptor is a non-selective cation channel activated by glutamate. Ionotropic glutamate receptors normally desensitize too rapidly to allow detectable calcium influx in a FLIPR assay (Strange et al. (2006). “Functional characterisation of homomeric ionotropic glutamate receptors GluR1-GluR6 in a fluorescence-based high throughput screening assay.” Comb Chem High Throughput Screen 9(2): 147-158). But, this desensitization is incomplete, and a substantial steady-state current remains in the sustained presence of glutamate (Cho et al. (2007). “Two families of TARP isoforms that have distinct effects on the kinetic properties of AMPA receptors and synaptic currents.” Neuron 55(6): 890-904).
An in vitro assay was used to determine the potency of test compounds as inhibitors of the glutamate response of the channel formed by GluA1o-γ8. To ensure a 1:1 stoichiometry of GluA1o and γ8 subunits in the expressed channel, a fusion of the cDNAs for GRIA1o and CACNG8 was used. Following Shi et al (2009) “The stoichiometry of AMPA receptors and TARPs varies by neuronal cell type.” Neuron 62(5): 633-640), the C-terminus of the cDNA for GRIA1o was fused to the N-terminus of the cDNA for γ8. The linker sequence was QQQQQQQQQQEFAT. Channels expressed with this construct appear to have similar properties to channels formed by co-expression of GRIA1o with an excess of CACNG8 (Shi et al. 2009). A clonal cell line in HEK293 cells stably expressing this construct, with a geneticin selection marker, was generated for use in this assay.
Cell expressing the GRIA1o-CACNG8 fusion construct were grown in a monolayer in 96- or 384-well microtiter plates. They were washed with assay buffer (135 mM NaCl, 4 mM KCl, 3 mM CaCl2, 1 mM MgCl2, 5 mM glucose, 10 mM HEPES, pH 7.4, 300 mOs) using a Biotek EL405 plate washer. The cells were then loaded with a calcium-sensitive dye (Calcium-5 or Calcium-6, Molecular Devices) and the test compounds at a range of concentrations. Calcium flux following the addition of 15 μM glutamate was monitored using a Molecular Devices FLIPR Tetra. The fluorescence in each well was normalized to the fluorescence of negative and positive control wells. The negative control wells had no added compounds, and the positive control wells had been incubated with 10 μM CP465022 (a non-subtype-selective AMPA receptor antagonist) (Lazzaro et al. (2002). “Functional characterization of CP-465,022, a selective, noncompetitive AMPA receptor antagonist.” Neuropharmacology 42(2): 143-153). The responses to glutamate as functions of the test compound concentrations were fitted to a four-parameter logistic function. The fitted parameter corresponding to the midpoint was taken to be the potency of inhibition of the compound. The data in Table 4 below illustrates the observed potentcy for the compounds described herein. pIC50 refers to the negative log of the IC50 in molar.
O=C1Cc2cc(-n3c(C4CCOC4)nc4ccc(C(F)(F)F)nc43)ccc2N1 (racemic) [Example 52, (racemic)-5-[2-Tetrahydrofuran-3-yl-5-(trifluoromethyl)imidazo[4,5-b]pyridin-3-yl]indolin-2-one] was tested, and the IC50 was 20 nM.
CCC(C)c1nc2ccc(C(F)(F)F)nc2n1-c1ccc2c(c1)CC(=O)N2 (racemic) [Example 96, (racemic)-5-[2-sec-Butyl-5-(trifluoromethyl)imidazo[4,5-b]pyridin-3-yl]indolin-2-one] gave an IC50 of 6.31 nM.
FC(F)(F)c1ccc2nc(C3CCOC3)n(-c3ccc4[nH]ncc4c3)c2n1 (racemic) [Example 100, (racemic)-3-(1H-Indazol-5-yl)-2-tetrahydrofuran-3-yl-5-(trifluoromethyl)imidazo[4,5-b]pyridine] was tested, and the IC50 was 251 nM.
In the case of CCC(C)c1nc2ccc(C(F)(F)F)nc2n1-c1ccc2[nH]ncc2c1 (racemic) [Example 102, (racemic)-3-(1H-Indazol-5-yl)-2-sec-butyl-5-(trifluoromethyl)imidazo[4,5-b]pyridine], the IC50 is reported as 10 nM.
Compound CC(F)c1nc2ccc(C(F)(F)F)nc2n1-c1ccc2[nH]ncc2c1 (racemic) [Example 117, (R/S)-2-(1-fluoroethyl)-3-(1H-indazol-5-yl)-5-(trifluoromethyl)imidazo[4,5-b]pyridine] has an IC50 of 5.01 nM.
O=c1[nH]c2ccc(-n3c(C4CCOC4)nc4ccc(C(F)(F)F)nc43)cc2o1 (racemic) [Example 161, (R/S)-6-[2-Tetrahydrofuran-3-yl-5-(trifluoromethyl)imidazo[4,5-b]pyridin-3-yl]-3H-1,3-benzoxazol-2-one] was tested, and the IC50 was 316 nM.
With O=C1Cc2cc(-n3c(C4CCOC4)cc4ccc(C(F)(F)F)nc43)cc(F)c2N1 (racemic) [Example 365, (RS)-7-Fluoro-5-[2-tetrahydrofuran-3-yl-6-(trifluoromethyl)pyrrolo[2,3-b]pyridin-1-yl]indolin-2-one] the IC50 was 0.2 nM.
COC(C)c1cc2cccnc2n1-c1cc(C)c2c(c1)CC(=O)N2 (racemic) [Example 368, (RS)-5-[2-(1-Methoxyethyl)pyrrolo[2,3-b]pyridin-1-yl]-7-methyl-indolin-2-one] was tested, and the IC50 was 31.6 nM.
In the case of Cc1cc(-n2c([C@@H](C)F)nc3ccc(C(F)(F)F)nc32)cc2cn[nH]c12 (single isomer, unassigned) [Example 256, (*R)-2-(1-Fluoroethyl)-3-(7-methyl-1H-indazol-5-yl)-5-(trifluoromethyl)imidazo[4,5-b]pyridine], the IC50 is reported as 0.0794 nM.
For Cc1cc(-n2c([C@H](C)F)nc3ccc(C(F)(F)F)nc32)cc2cn[nH]c12 (single isomer, unassigned) [Example 257, (*S)-2-(1-Fluoroethyl)-3-(7-methyl-1H-indazol-5-yl)-5-(trifluoromethyl)imidazo[4,5-b]pyridine], the IC50 was 0.0501 nM.
For CC[C@@H](C)c1nc2ccc(C(F)(F)F)nc2n1-c1cc(Cl)c2[nH]ncc2c1 (single isomer, unassigned) [Example 404, (*R)-2-(sec-Butyl)-3-(7-chloro-1H-indazol-5-yl)-5-(trifluoromethyl)-3H-imidazo[4,5-b]pyridine], the IC50 was 0.1 nM.
In the case of CC[C@H](C)c1nc2ccc(C(F)(F)F)nc2n1-c1cc(Cl)c2[nH]ncc2c1 (single isomer, unassigned) [Example 405, (*S)-2-(sec-Butyl)-3-(7-chloro-1H-indazol-5-yl)-5-(trifluoromethyl)-3H-imidazo[4,5-b]pyridine], the IC50 is reported as 0.0631 nM.
Compound CC[C@@H](C)c1nc2ccc(C(F)(F)F)nc2n1-c1cc(C)c2[nH]ncc2c1 (single isomer, unassigned) [Example 406, (*R)-2-(sec-Butyl)-3-(7-methyl-1H-indazol-5-yl)-5-(trifluoromethyl)-3H-imidazo[4,5-b]pyridine] has an IC50 of 0.126 nM.
In the case of CC[C@H](C)c1nc2ccc(C(F)(F)F)nc2n1-c1cc(C)c2[nH]ncc2c1 (single isomer, unassigned) [Example 407, (*S)-2-(sec-Butyl)-3-(7-methyl-1H-indazol-5-yl)-5-(trifluoromethyl)-3H-imidazo[4,5-b]pyridine], the IC50 is reported as 0.1 nM.
Compound C[C@@H](F)c1nc2ccc(C(F)(F)F)nc2n1-c1cc(Cl)c2[nH]ncc2c1 (single isomer, unassigned) [Example 408, (*R)-3-(7-Chloro-1H-indazol-5-yl)-2-(1-fluoroethyl)-5-(trifluoromethyl)-3H-imidazo[4,5-b]pyridine] has an IC50 of 0.1 nM.
C[C@H](F)c1nc2ccc(C(F)(F)F)nc2n1-c1cc(Cl)c2[nH]ncc2c1 (single isomer, unassigned) [Example 409, (*S)-3-(7-Chloro-1H-indazol-5-yl)-2-(1-fluoroethyl)-5-(trifluoromethyl)-3H-imidazo[4,5-b]pyridine] showed an IC50 of 0.0794 nM.
Compound FC(F)(F)c1ccc2nc(-c3ccccc3)n(-c3ccc4[nH]ncc4c3)c2n1 [Example 1, 3-(1H-Indazol-5-yl)-2-phenyl-5-(trifluoromethyl)-3H-imidazo[4,5-b]pyridine] has an IC50 of 0.398 nM.
c1ccc(-c2nc3cccnc3n2-c2ccc3[nH]ncc3c2)cc1 [Example 2, 3-(1H-Indazol-5-yl)-2-phenyl-imidazo[4,5-b]pyridine] was tested, and the IC50 was 50.1 nM.
Cc1ccc2nc(-c3ccccc3)n(-c3ccc4[nH]ncc4c3)c2n1 [Example 3, 3-(1H-Indazol-5-yl)-5-methyl-2-phenyl-imidazo[4,5-b]pyridine] showed an IC50 of 0.794 nM.
With Cc1ccc2nc(-c3ccc(F)cc3)n(-c3ccc4[nH]ncc4c3)c2n1 [Example 4, 2-(4-Fluorophenyl)-3-(1H-indazol-5-yl)-5-methyl-imidazo[4,5-b]pyridine] the IC50 was 1 nM.
Work on COc1ccc2nc(-c3ccc(F)cc3)n(-c3ccc4[nH]ccc4c3)c2n1 [Example 5, 2-(4-Fluorophenyl)-3-(1H-indol-5-yl)-5-methoxy-imidazo[4,5-b]pyridine] yielded an IC50 of 39.8 nM.
For COc1ccc2nc(-c3ccc(F)cc3)n(-c3ccc4c(c3)CC(=O)N4)c2n1 [Example 6, 5-[2-(4-Fluorophenyl)-5-methoxy-imidazo[4,5-b]pyridin-3-yl]indolin-2-one], the IC50 was 39.8 nM.
Fc1ccc(-c2nc3ccc(Cl)nc3n2-c2ccc3[nH]ncc3c2)cc1 [Example 7, 5-Chloro-2-(4-fluorophenyl)-3-(1H-indazol-5-yl)imidazo[4,5-b]pyridine] was tested, and the IC50 was 2 nM.
Work on Cc1ccc2nc(-c3ccccc3Cl)n(-c3ccc4[nH]ncc4c3)c2n1 [Example 8, 2-(2-Chlorophenyl)-3-(1H-indazol-5-yl)-5-methyl-imidazo[4,5-b]pyridine] yielded an IC50 of 63.1 nM.
With Cc1cnc2c(c1)nc(-c1ccccc1)n2-c1ccc2[nH]ncc2c1 [Example 9, 3-(1H-Indazol-5-yl)-6-methyl-2-phenyl-imidazo[4,5-b]pyridine] the IC50 was 25.1 nM.
Clc1ccc2nc(-c3ccccc3)n(-c3ccc4[nH]ncc4c3)c2n1 [Example 10, 5-Chloro-3-(1H-indazol-5-yl)-2-phenyl-imidazo[4,5-b]pyridine] gave an IC50 of 1 nM.
Compound Clc1ccc2nc(C3CCCC3)n(-c3ccc4[nH]ncc4c3)c2n1 [Example 11, 5-Chloro-2-cyclopentyl-3-(1H-indazol-5-yl)imidazo[4,5-b]pyridine] has an IC50 of 10 nM.
With Cc1ccc2nc(-c3ccccc3)n(-c3ccc4c(cnn4C(=O)OC(C)(C)C)c3)c2n1 [Example 12, tert-Butyl 5-(5-methyl-2-phenyl-imidazo[4,5-b]pyridin-3-yl)indazole-1-carboxylate] the IC50 was 20 nM.
